Reference: US20250263370A1 (Tay Therapeutics Limited, priority 2022, published 2025)
Where “and” joins values, the source holds several entries; their conditions need not be identical. Equal values may be shown once. Entries after “also recorded” stand apart in the source; their conditions may differ.

System: collagen-induced arthritis
Experiment: Collagen-induced arthritis (CIA) model in rats: body weight, paw volume, clinical scores, clinical observations; for Average detailed clinical score, left hind limb: key of the grades not given here; for Average detailed clinical score, right hind limb: key of the grades not given here; for Detailed Clinical Scores, left forelimb: key of the grades not given here; for Detailed Clinical Scores, left hind limb: key of the grades not given here; for Detailed Clinical Scores, right forelimb: key of the grades not given here; for Detailed Clinical Scores, right hind limb: key of the grades not given here; for Detailed Clinical Scores, score: key of the grades not given here; for Mean overall clinical score ± SD: key of the grades not given here; for Overall clinical score: key of the grades not given here
Conditions: for Mean animal paw volume ± SD: group mean; for Detailed Clinical Scores, left forelimb / Detailed Clinical Scores, left hind limb / Detailed Clinical Scores, right forelimb / Detailed Clinical Scores, right hind limb / Detailed Clinical Scores, score: individual animals ID 1-8; for Overall clinical score: individual animals #1-8
Procedure: Prior to be randomly placed in treatment groups, animals were weighed, and paw volume was measured. Once randomly assigned to treatment groups, on Day 0, animals in groups 2-9 were immunized by subcutaneous injection at the base of the tail.
The immunization comprised 100 μL of the CFA+Collagen emulsion (prepared according to the method in Experimental Method A). Animals in group one received no immunization. Seven days after the first injection, animals in groups 2-9 received a booster immunization comprising 200 μL of the IFA+Collagen emulsion (prepared according to the method in Experimental Method A).
Starting on Day 0, animals in group 1 and 2 were administered daily doses of the vehicle per os (P.O.) for 21 days. […] The twice daily doses for animals in groups 4-9 were 8 hours apart (e.g., the first dose at 8:00 AM and the second dose at 4:00 PM).
Body weight of all animals was recorded daily for the 21-day period. Blind clinical scores on all four limbs were conducted for all animals in the study. Animals were assessed prior to receiving their first dose of the compound or control, and scores for each limb were combined to a total daily score for each animal. Clinical score assessments were performed on Day 0, 6, 12, 13, 14, 15, 18, 19, and 21 (for a total of 9 daily scores).
Paw volume was recorded for each animal on Day 0, 6, 12, 13, 14, 15, 18, 19, and 21 (for a total of 9 measurements). To measure paw volume, animals were gently held with one hand while the hind paw was placed into a plethysmometer with the other hand. Lipid displacement by the paw was recorded and used to represent paw volume.
All data measured and recorded was analyzed using SPSS 16.0 software. Groups were compared using one-way ANOVA and significance was set at p<0.05.

C[C@@H]1C[C@H]2[C@@H]3CCC4=CC(=O)C=C[C@]4(C)[C@@]3(F)[C@@H](O)C[C@]2(C)[C@@]1(O)C(=O)CO [dexamethasone]
Average animal paw volume percent change (CIA rats, Day 0, left hind paw (L)): 0.00%
Animal paw volume Day 0 L (CIA rats, Day 0, left paw, individual animals): 1.35 mL and 1.31 mL and 1.39 mL and 1.33 mL and 1.30 mL (2×) and 1.34 mL and 1.36 mL
Average animal paw volume percent change (CIA rats, Day 0, right hind paw (R)): 0.00%
Animal paw volume Day 0 R (CIA rats, Day 0, right paw, individual animals): 1.34 mL and 1.30 mL (2×) and 1.38 mL and 1.35 mL and 1.29 mL and 1.36 mL and 1.37 mL
Average animal paw volume percent change (CIA rats, Day 6, left hind paw (L)): −3.37%
Animal paw volume Day 6 L (CIA rats, Day 6, left paw, individual animals): 1.31 mL and 1.29 mL (3×) and 1.34 mL and 1.26 mL (2×) and 1.28 mL
Average animal paw volume percent change (CIA rats, Day 6, right hind paw (R)): −3.26%
Animal paw volume Day 6 R (CIA rats, Day 6, right paw, individual animals): 1.30 mL (3×) and 1.28 mL (2×) and 1.34 mL and 1.27 mL and 1.26 mL
Average animal paw volume percent change (CIA rats, Day 12, left hind paw (L)): −4.94%
Animal paw volume Day 12 L (CIA rats, Day 12, left paw, individual animals): 1.21 mL (2×) and 1.37 mL and 1.28 mL (2×) and 1.22 mL and 1.30 mL and 1.29 mL
Average animal paw volume percent change (CIA rats, Day 12, right hind paw (R)): −5.21%
Animal paw volume Day 12 R (CIA rats, Day 12, right paw, individual animals): 1.25 mL (2×) and 1.26 mL (2×) and 1.37 mL and 1.27 mL and 1.18 mL and 1.29 mL
Average animal paw volume percent change (CIA rats, Day 13, left hind paw (L)): −3.57%
Animal paw volume Day 13 L (CIA rats, Day 13, left paw, individual animals): 1.23 mL and 1.24 mL and 1.40 mL and 1.29 mL (2×) and 1.30 mL and 1.25 mL and 1.31 mL
Average animal paw volume percent change (CIA rats, Day 13, right hind paw (R)): −4.08%
Animal paw volume Day 13 R (CIA rats, Day 13, right paw, individual animals): 1.26 mL and 1.27 mL and 1.38 mL and 1.25 mL and 1.28 mL and 1.21 mL and 1.31 mL and 1.29 mL
Average animal paw volume percent change (CIA rats, Day 14, left hind paw (L)): −4.60%
Animal paw volume Day 14 L (CIA rats, Day 14, left paw, individual animals): 1.24 mL (3×) and 1.39 mL and 1.27 mL and 1.28 mL and 1.29 mL and 1.25 mL
Average animal paw volume percent change (CIA rats, Day 14, right hind paw (R)): −5.07%
Animal paw volume Day 14 R (CIA rats, Day 14, right paw, individual animals): 1.26 mL (4×) and 1.38 mL and 1.23 mL and 1.20 mL and 1.29 mL
Average animal paw volume percent change (CIA rats, Day 15, left hind paw (L)): −5.47%
Animal paw volume Day 15 L (CIA rats, Day 15, left paw, individual animals): 1.23 mL and 1.21 mL and 1.36 mL and 1.28 mL and 1.26 mL and 1.16 mL and 1.33 mL and 1.27 mL
Average animal paw volume percent change (CIA rats, Day 15, right hind paw (R)): −5.41%
Animal paw volume Day 15 R (CIA rats, Day 15, right paw, individual animals): 1.25 mL and 1.24 mL and 1.36 mL and 1.27 mL (2×) and 1.14 mL and 1.32 mL and 1.26 mL
Average animal paw volume percent change (CIA rats, Day 18, left hind paw (L)): −3.01%
Animal paw volume Day 18 L (CIA rats, Day 18, left paw, individual animals): 1.28 mL and 1.22 mL and 1.45 mL and 1.31 mL and 1.29 mL and 1.18 mL and 1.34 mL and 1.30 mL
Average animal paw volume percent change (CIA rats, Day 18, right hind paw (R)): −3.14%
Animal paw volume Day 18 R (CIA rats, Day 18, right paw, individual animals): 1.28 mL and 1.44 mL and 1.31 mL and 1.29 mL (2×) and 1.34 mL
Average animal paw volume percent change (CIA rats, Day 19, left hind paw (L)): −3.33%
Animal paw volume Day 19 L (CIA rats, Day 19, left paw, individual animals): 1.28 mL (2×) and 1.22 mL and 1.44 mL and 1.30 mL (2×) and 1.19 mL and 1.33 mL
Average animal paw volume percent change (CIA rats, Day 19, right hind paw (R)): −3.57%
Animal paw volume Day 19 R (CIA rats, Day 19, right paw, individual animals): 1.27 mL (2×) and 1.22 mL and 1.44 mL and 1.31 mL and 1.18 mL and 1.32 mL and 1.30 mL
Average animal paw volume percent change (CIA rats, Day 21, left hind paw (L)): −3.56%
Animal paw volume Day 21 L (CIA rats, Day 21, left paw, individual animals): 1.26 mL and 1.22 mL and 1.43 mL and 1.31 mL (2×) and 1.30 mL (2×) and 1.18 mL
Average animal paw volume percent change (CIA rats, Day 21, right hind paw (R)): −3.51%
Animal paw volume Day 21 R (CIA rats, Day 21, right paw, individual animals): 1.26 mL and 1.22 mL and 1.43 mL and 1.31 mL and 1.30 mL (2×) and 1.18 mL and 1.32 mL
signs of disease over the 21-day period (CIA rats, daily P.O. for 21 days): No animals in group 3 (dexamethasone) ever received a score indicating that they exhibited symptoms of disease; also recorded: never exhibited any signs of disease
effect on hind paw volume (CIA rats, daily P.O. for 21 days, listed as Dexamethasone): effective at controlling paw volume; also recorded: effective at preventing any change in paw volume throughout the entire 21-day period
animals showing signs of disease (CIA rats, daily P.O., day 12): No animals
Mean animal paw volume ± SD (Day 0, L paw): 1.33 mL
Animal paw volume percent change (Day 0, L paw, individual animals): 0.00%
Mean animal paw volume ± SD (Day 0, R paw): 1.33 mL
Animal paw volume percent change (Day 0, R paw, individual animals): 0.00%
Average detailed clinical score, left forelimb (Day 0, CIA rats): 0.00
Average detailed clinical score, left hind limb (Day 0, CIA rats): 0.00
Average detailed clinical score, right forelimb (Day 0, CIA rats): 0.00
Average detailed clinical score, right hind limb (Day 0, CIA rats): 0.00
Average detailed clinical score, score (Day 0, CIA rats): 0.00
Mean overall clinical score ± SD (Day 0, CIA rats): 0 ± 0
Detailed Clinical Scores, left forelimb (Day 0, CIA rats): 0
Detailed Clinical Scores, left hind limb (Day 0, CIA rats): 0
Detailed Clinical Scores, right forelimb (Day 0, CIA rats): 0
Detailed Clinical Scores, right hind limb (Day 0, CIA rats): 0
Detailed Clinical Scores, score (Day 0, CIA rats): 0
Overall clinical score (Day 0, CIA rats): 0
Mean animal paw volume ± SD (Day 6, L paw): 1.29 mL
Animal paw volume percent change (Day 6, L paw, individual animals): −2.97% and −1.53% and −3.61% and −3.02% and −3.09% and −3.08% and −4.12% and −5.51%
Mean animal paw volume ± SD (Day 6, R paw): 1.29 mL
Animal paw volume percent change (Day 6, R paw, individual animals): −3.00% and −1.16% and −2.91% and −3.72% and −1.56% and −2.70% and −5.90% and −5.13%
Average detailed clinical score, left forelimb (Day 6, CIA rats): 0.00
Average detailed clinical score, left hind limb (Day 6, CIA rats): 0.00
Average detailed clinical score, right forelimb (Day 6, CIA rats): 0.00
Average detailed clinical score, right hind limb (Day 6, CIA rats): 0.00
Average detailed clinical score, score (Day 6, CIA rats): 0.00
Mean overall clinical score ± SD (Day 6, CIA rats): 0 ± 0
Detailed Clinical Scores, left forelimb (Day 6, CIA rats): 0
Detailed Clinical Scores, left hind limb (Day 6, CIA rats): 0
Detailed Clinical Scores, right forelimb (Day 6, CIA rats): 0
Detailed Clinical Scores, right hind limb (Day 6, CIA rats): 0
Detailed Clinical Scores, score (Day 6, CIA rats): 0
Overall clinical score (Day 6, CIA rats): 0
Mean animal paw volume ± SD (Day 12, L paw): 1.27 mL
Animal paw volume percent change (Day 12, L paw, individual animals): −10.41% and −7.66% and −1.44% and −3.40% and −1.54% and −6.54% and −3.00% and −5.51%
Mean animal paw volume ± SD (Day 12, R paw): 1.26 mL
Animal paw volume percent change (Day 12, R paw, individual animals): −6.74% and −3.09% and −0.73% and −7.43% and −1.56% and −9.27% and −7.01% and −5.86%
Average detailed clinical score, left forelimb (Day 12, CIA rats): 0.00
Average detailed clinical score, left hind limb (Day 12, CIA rats): 0.00
Average detailed clinical score, right forelimb (Day 12, CIA rats): 0.00
Average detailed clinical score, right hind limb (Day 12, CIA rats): 0.00
Average detailed clinical score, score (Day 12, CIA rats): 0.00
Mean overall clinical score ± SD (Day 12, CIA rats): 0 ± 0
Detailed Clinical Scores, left forelimb (Day 12, CIA rats): 0
Detailed Clinical Scores, left hind limb (Day 12, CIA rats): 0
Detailed Clinical Scores, right forelimb (Day 12, CIA rats): 0
Detailed Clinical Scores, right hind limb (Day 12, CIA rats): 0
Detailed Clinical Scores, score (Day 12, CIA rats): 0
Overall clinical score (Day 12, CIA rats): 0
Mean animal paw volume ± SD (Day 13, L paw): 1.28 mL
Animal paw volume percent change (Day 13, L paw, individual animals): −8.92% and −5.36% and 0.72% and −3.02% and 0.00% and −4.23% and −2.25% and −5.51%
Mean animal paw volume ± SD (Day 13, R paw): 1.28 mL
Animal paw volume percent change (Day 13, R paw, individual animals): −5.99% and −2.32% and 0.36% and −7.43% and −0.78% and −6.95% and −3.69% and −5.86%
